Reference: US8394929B2, “Nogo receptor-mediated blockade of axonal growth” (Yale University, priority 2000, dated 2013)
Read-outs that look alike come from different tables or passages of the source.

Assays:
[1] = tested on: GST-Nogo-induced growth cone collapse; assay: Blockade of Nogo-induced growth cone collapse in chick DRG cultures; type: cell-based; conditions: GST-Nogo / Nogo-66 as collapsing agent
Procedure: (§1) For all experiments involving cell culture, the following methods were employed. The culture of embryonic chick E10 and E12 dorsal root ganglion explants and dissociated neurons utilized methods described for E7 dorsal root ganglion cultures (Takahashi et al., (1998) Nature Neurosci. 1, 487-493; Takahashi et al., (1999) Cell 99, 59-69; Goshima et al., (1995) Nature 376, 509-514; Jin & Strittmatter, (1997) J. Neurosci. […]). NGF-differentiated PC12 cells were cultured as described (Strittmatter et al., (1994) J. Neurosci. 14, 2327-2338). Embryonic spinal cord explants (rat E10 or chick E5) were cultured for 7-14 days in the presence of PDGF-AA to induce differentiation of some cells into mature oligodendrocytes (Vartanian et al., (1999) Proc. Natl. Acad. Sci. USA 96, 731-735). The procedure for growth cone collapse assays is identical to that for analysis of Sema3A-induced growth cone collapse (Takahashi et al., (1998) Nature Neurosci. 1, 487-493; Takahashi et al., (1999) Cell 99, 59-69; Goshima et al., (1995) Nature 376, 509-514; Jin & Strittmatter, (1997) J. Neurosci. 17, 6256-6263). The method for analysis of total neurite outgrowth has also been described (Goshima et al., (1995) Nature 376, 509-514; Jin & Strittmatter, (1997) J. Neurosci. 17, 6256-6263; Strittmatter et al., (1994) J. Neurosci. 14, 2327-2338). In outgrowth assays, proteins and peptides were added one hour after plating to minimize any effect on the total number of adherent cells. To test the effect of substrate-bound GST or GST-Nogo, the protein solutions were dried on poly-L-lysine coated glass, washed and then coated with laminin. For E12 cultures, the neuronal identity of cells was verified by staining with anti-neurofilament antibodies (2H3, Develomental Studies Hybridoma Bank) and neurites were traced by observation of rhodamine-phalloidin staining of F-actin in processes.
In the growth cone collapse assay, the response to Nogo was measured in the presence of various potential antagonistic peptides. […] This blockade supports the hypothesis that Nogo is a primary inhibitory component of CNS myelin.
For further testing, a synthetic peptide containing amino acid residues #1055-1094 of hNgR, acetylated at the […] was used [hereinafter “Peptide 140”]. […] Antagonist of Nogo-66 inhibitory activity may act by competing for, and thereby blocking NgR binding sites. To determine the antagonistic activity of Peptide 140, the above synthetic form of the peptide was added to E12 chick DRG explant cultures approximately 10 min before application of various concentrations of GST-NogoA (residues #1055-1120), TPA or Sema3A. 30 min later, cultures were fixed and growth cone collapse was assessed following staining with rhodamine-phalloidin.

[2] = tested on: GST-Nogo-66 inhibition of neurite outgrowth; assay: Blockade of Nogo-induced inhibition of neurite outgrowth in chick DRG neurons; type: cell-based
Procedure: as §1
Peptide 140 was tested for its ability to neutralize neurite outgrowth inhibition caused by the addition of GST fused to residues #1055-1120 of hNogoA (designated Nogo-66 in FIG. 16e). Plastic chamber slides were coated with 100 μg ml^−1 poly-L-lysine, washed, and dried. 3 μl drops of PBS containing GST-hNogoA(residues #1055-1120) were spotted and dried. Slides were then rinsed and coated with 10 μg ml fs24^−1 laminin before addition of dissociated E12 chick DRGs. Peptide 140 was added at the time of cell plating. Cultures were grown for 5-7 h after which neurite outgrowth was assessed.
Although the role of the GPI anchor may be to regulate NgR cellular compartmentalization, another possible role for the GPI linkage is to provide a NgR cleavage site. Cleaving NgR could serve to affect hNogo-A (1055-1120) signaling by rendering a neuron insensitive to hNogo-A (1055-1120) and by releasing soluble NgR that could then act on adjacent cells to modulate hNogo-A (1055-1120) signaling. To determine if soluble mNgR modulates hNogo-A (1055-1120)-dependent inhibition, a soluble mNgR was generated by inserting a truncated cDNA encoding mNgR residues 1-348 in frame with a myc-His carboxy tag into pcDNA3.1. The resulting plasmid expressing mNgREcto was transfected into HEK293T cells, and conditioned media containing mNgREcto protein was collected. To test the effect of mNgREcto on Nogo signaling, E13 dissociated DRGs were plated in the presence of hNogo-A (1055-1120) or myelin. The inhibitors were presented in either soluble or substrate-bound forms. For neurite outgrowth assays on hNogo-A (1055-1120) or myelin substrates, Permanox chamber slides were coated with 100μ, fs24 g ml^−1 poly-L-Lysine, washed, and then 3-μl drops of phosphate-buffered saline (hereinafter “PBS”) containing 0, 10, 50, or 150 ng of GST-hNogo-A (1055-1120) or myelin were spotted and dried. GST-hNogo-A (1055-1120) and myelin were prepared as previously described (GrandPre et al., supra; Fournier et al., J. Cell Biol. 149:411-421, 2000). After three PBS washes, slides were coated with 10 μg ml^−1 laminin. […]

| Molecule | blockade of Nogo-induced growth cone collapse (in words) [1] | blockade of Nogo-induced neurite outgrowth inhibition (in words) [2] | blockade of Nogo-induced neurite outgrowth inhibition (in words) ([2]; listed as 2-41 fragment) | blockade of Nogo-induced growth cone collapse (in words) ([1]; listed as NgR ectodomain protein) | blockade of Nogo-induced growth cone collapse (in words) ([1]; listed as mNgR ectodomain protein) | blockade of Nogo-induced neurite outgrowth inhibition (in words) ([2]; listed as NgREcto) |
| --- | --- | --- | --- | --- | --- | --- |
| Pep2-41: 2-41 fragment of the 66 amino acid region of Nogo, acetylated and amidated at the termini (Ac-RIYKGVIQAIQKSDEGHPFRAYLESEVAISEELVQKYSNS-NH2) | abolishes GST-Nogo-induced growth cone collapse | can reverse the inhibition of neurite outgrowth | blocks | – | – | – |
| Peptide 140: synthetic peptide of amino acids #1055-1094 of the human NogoA protein, acetylated and amidated at the termini (Ac-RIYKGVIQAIQKSDEGHPFRAYLESEVAISEELVQKYSNS-NH2; UniProt Q9NQC3 1055-1094, looked up, fragment) | significantly blocks growth cone collapse | extensive outgrowth is observed | – | – | – | – |
| NgR-ecto: secreted fragment of amino acid residues 1-348 of the murine NgR, in HEK293T conditioned medium (protein, left off: small tags and cut ends, secreted fragment of amino acid residues 1-348 of the murine NgR, in HEK293T conditioned medium) CPGACVCYNEPKVTTSCPQQGLQAVPTGIPASSQRIFLHGNRISHVPAASFQSCRNLTILWLHSNALARIDAAAFTGLTLLEQLDLSDNAQLHVVDPTTFHGLGHLHTLHLDRCGLRELGPGLFRGLAALQYLYLQDNNLQALPDNTFRDLGNLTHLFLHGNRIPSVPEHAFRGLHSLDRLLLHQNHVARVHPHAFRDLGRLMTLYLFANNLSMLPAEVLMPLRSLQYLRLNDNPWVCDCRARPLWAWLQKFRGSSSEVPCNLPQRLADRDLKRLAASDLEGCAVASGPFRPIQTSQLTDEELLSLPKCCQPDAADKASVLE | prevents Nogo-66-induced growth cone collapse | blocks Nogo-66-induced inhibition of neurite outgrowth | – | blocked | blocked | partially reversed |
